# Experimental data as given in patent US20240150335A1, “FUSED RING DERIVATIVES CONTAINING 1,4-OXAZEPANE” (MEDSHINE DISCOVERY INC., priority 2021, published 2024).
# Columns and labels:
# [1] = biological target: Recombinant human cathepsin C/DPP1; experiment: Inhibition effect test of DPP1 enzyme activity; type: biochemical; details: recombinant human cathepsin C/DPP1, Gly-Arg-AMC substrate 12.5 μM, 25° C. 60 minutes; read-out: IC50, inhibitory activity on DPP1 enzyme
# Description: Experimental Example 1: Inhibition Effect Test of DPP1 Enzyme Activity
# Recombinant human cathepsin C/DPP1 was purchased from R&D Systems;
# Recombinant human cathepsin L (rhCathepsin L) was purchased from R&D Systems;
# Gly-Arg-AMC (hydrochloride) was purchased from CAYMAN CHEMICAL COMPANY.
# 1× activation buffer: 5 mM DTT 0.01% (V/V) Triton X-100 (preparation for current use);
# 1× assay buffer: 50 mM NaCl 5 mM DTT 0.01% (V/V) Triton X-100 (preparation for current use);
# 1× activation buffer was used to dilute recombinant human cathepsin C/DPP1 enzyme and recombinant human cathepsin L (rhCathepsin L) enzyme to concentrations of 2 ng/μL and 0.4 ng/μL, respectively; equal volume of two working solutions of enzyme was taken, mixed well and incubated at 25° C. for 60 minutes;
# the compounds to be tested were 5-fold diluted with a multi-channel pipette to the 8th concentration, i.e., diluted from 1 mM to 12.8 nM. Then 1× experimental buffer was used to dilute each compound to be tested by gradient into a 4% DMSO working solution. The working solution was added to corresponding wells for 5 μL/well, and duplicate experiment was set. The mixture was centrifuged at 1000 rpm for 1 minute;
# 5 μL/well of the enzyme mixture after incubation was taken and added to the white microwell plate. At this time, the amount of DPP1 enzyme in each well was 5 ng; 1× experimental buffer in 5 μL/well was added to the blank control well;
# Gly-Arg-AMC (hydrochloride) was diluted to 25 μM with 1× assay buffer. The diluted mixture in 10 μL/well was added to a white microwell plate. The substrate concentration was 12.5 μM at this time, and the microplate was centrifuged in a centrifuge at 1000 rpm for 1 minute. […] After centrifugation, the microplate was covered with membrane and incubated at 25° C. for 60 minutes;
# after incubation, fluorescence detection was performed using a multi-label analyzer with an excitation wavelength of 360 nm and an emission wavelength of 460 nm.
# Using the equation (Sample−Min)/(Max−Min)×100% to convert the raw data into enzyme activity, the IC50 value might be obtained by curve fitting with four parameters (obtained by “log (inhibitor) vs. response—Variable slope” mode in GraphPad Prism).
# Max: Contains recombinant human cathepsin C/DPP1, recombinant human cathepsin L (rhCathepsin L), and Gly-Arg-AMC (hydrochloride)
# Min: No recombinant human cathepsin C/DPP1 and recombinant human cathepsin L (rhCathepsin L)
# [2] = Mouse tissue (bone marrow) distribution; type: in vivo; details: CD-1 mice
# Description: Experimental Example 5: Evaluation of Mouse Tissue (Bone Marrow) Distribution of the Compound of the Present Disclosure
# Experimental purpose: To test the distribution of the compound of the present disclosure in the bone marrow and plasma of CD-1 mice
# Experimental materials: CD-1 mice (male, 20 to 40 g, 4 to 6 weeks old, Beijing Vital River)
# The content of the compound in the bone marrow and plasma of mice after oral administration was tested according to the standard protocol. In the experiment, the candidate compound was formulated into a clear solution. The vehicle was 5:95 DMSO and 10% hydroxypropyl β-cyclodextrin aqueous solution. A dose of 5 mg/kg was given to mice as a single oral administration. The whole blood samples and bone marrow samples were collected at 0.25, 0.5, 1, 2, 4, 6, and 24 hours, respectively. The whole blood samples were collected in commercial EDTA2K anticoagulant tubes. The tubes were centrifuged at 6000 g for 3 minutes. The supernatant was separated to obtain plasma samples. The acetonitrile solution containing internal standard was added to precipitate protein. The mixture was centrifuged. The supernatant was take out. An equal volume of water was added. After mixing well, plasma concentration was quantitatively analyzed by LC-MS/MS analysis method, and the area under the drug-time curve was calculated. The femur and tibia on both sides of the mice were taken, and the muscle was removed. One end was cut off, placed in a centrifuge tube with the open end downwards. The tubes were centrifuged at 8000 rpm for 1 minute. The precipitate was bone marrow. The bone marrow was mixed with 50% methanol-water, grinded into a homogenate. The homogenate was added with an acetonitrile solution containing an internal standard to precipitate protein. The mixture was centrifuged to take the supernatant, added with an equal volume of water. After mixing well, the drug concentration in bone marrow was quantitatively analyzed by LC-MS/MS analysis method, and the area under the drug-time curve was calculated.
# The calculation formula of bone marrow/plasma distribution coefficient is: Bone marrow/Plasma Ratio=bone marrow AUC0-last/plasma AUC0-last.
# [3] = bone marrow, 5 mg/kg single oral administration
smiles,measurement,setting,value
Cn1ncc2ccc(-c3ccc(C[C@@H](C#N)NC(=O)[C@@H]4CNCCCO4)c(F)c3)cc21 [Compound 8],IC50,[1],3.57 nM
same,Bone marrow/plasma distribution coefficient,"[2]; 5 mg/kg oral, bone marrow AUC0-last/plasma AUC0-last",4.5
same,Bone marrow Area under drug-time curve AUC0-last PO,[2]; [3],82362 nmol·h/kg
same,Bone marrow Peak concentration Cmax,[2]; [3],6113 nmol/kg
same,Plasma Area under drug-time curve AUC0-last PO,"[2]; plasma, 5 mg/kg single oral administration",18.362 µM·h
same,Cmax,"[2]; plasma, 5 mg/kg single oral administration, read-out: Plasma Peak concentration Cmax",2300 nM
